One assay deals with T1, human RIP1 kinase domain (2-375) (Homo sapiens (Human), UniProt Q13546). As to the kind of experiment: biochemical. To be noted: RIP1 kinase inhibition, tight-binding apparent Ki, 50 nM enzyme, 50 μM ATP, 2 hours incubation.
T1 sequence (Q13546 2-375): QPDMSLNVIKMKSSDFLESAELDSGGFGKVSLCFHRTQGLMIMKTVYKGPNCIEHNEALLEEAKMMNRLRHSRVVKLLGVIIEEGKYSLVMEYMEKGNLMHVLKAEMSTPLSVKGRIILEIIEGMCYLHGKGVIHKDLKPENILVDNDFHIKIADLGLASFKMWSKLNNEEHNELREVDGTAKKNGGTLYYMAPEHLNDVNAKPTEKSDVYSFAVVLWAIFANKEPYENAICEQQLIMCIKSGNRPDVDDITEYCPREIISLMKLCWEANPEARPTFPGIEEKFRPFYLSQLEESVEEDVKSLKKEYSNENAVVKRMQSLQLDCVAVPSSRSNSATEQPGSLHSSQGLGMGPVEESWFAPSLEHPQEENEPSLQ
Experimental: RIP1 Kinase Inhibition Assays (Biochemical Assay)
The ability of the receptor interacting protein kinase (RIPK1) to catalyze the hydrolysis of adenosine-5′-triphosphate (ATP) is monitored using the Transcreener ADP (adenosine-5′-diphosphate) assay (BellBrook Labs). Purified human RIP1 kinase domain (2-375) (50 nM) derived from a baculovirus-infected insect cell expression system is incubated with test compounds for 2 hours in 50 mM Hepes buffer (pH 7.5) containing 30 mM MgCl2, 1 mM dithiothreitol, 50 μM ATP, 0.002% Brij-35, and 0.5% dimethyl sulfoxide (DMSO). […] The tracer bound to the antibody is displaced by the ADP generated during the RIP1K reaction, which causes a decrease in fluorescence polarization that is measured by laser excitation at 633 nm with a FP microplate reader M1000. Fractional activity was plotted against test article concentration. Using Genedata Screener software (Genedata; Basel, Switzerland), the data were fit to the tight-binding apparent inhibition constant (Ki^app) Morrison equation [Williams, J. W. and Morrison, J. F. (1979) The kinetics of reversible tight-binding inhibition. […] The following equation was used to calculate fractional activity and Ki^app:
[formula] where [E]T and [I]T are the total concentrations of active enzyme and test article, respectively.
As to `O=C(c1nc2n(n1)[C@H](c1ccccc1)C[C@@H]2F)[C@]12COC[C@H]1C2` (racemic) [Example 144, [rac-(5S,7S)-7-fluoro-5-phenyl-6,7-dihydro-5H-pyrrolo[1,2-b][1,2,4]triazol-2-yl]-[rac-(1S,5S)-3-oxabicyclo[3.1.0]hexan-1-yl]methanone], the Ki stood at 230 nM.
Still for that read-out and setting: in the case of `O=C(c1nc2n(n1)[C@H](c1ccccc1)C[C@@H]2F)[C@H]1C[C@@H]1C(F)(F)F` (racemic) [Example 160, [rac-(5S,7S)-7-fluoro-5-phenyl-6,7-dihydro-5H-pyrrolo[1,2-b][1,2,4]triazol-2-yl]-[rac-(1S,2S)-2-(trifluoromethyl)cyclopropyl]methanone] it was 3 nM.
For the compound `O=C(c1nc2n(n1)[C@H](c1ccccc1)C[C@@H]2F)[C@@H]1C[C@H]1C(F)(F)F` (racemic) [Example 161, [rac-(5S,7S)-7-fluoro-5-phenyl-6,7-dihydro-5H-pyrrolo[1,2-b][1,2,4]triazol-2-yl]-[rac-(1R,2R)-2-(trifluoromethyl)cyclopropyl]methanone], the Ki was 50 nM.
With `O=C(c1nc2n(n1)[C@H](c1ccccc1)C[C@@H]2F)[C@H]1CC12CC2` (racemic) [Example 162, [rac-(5S,7S)-7-fluoro-5-phenyl-6,7-dihydro-5H-pyrrolo[1,2-b][1,2,4]triazol-2-yl]-[rac-(2S)-spiro[2.2]pentan-2-yl]methanone], the Ki worked out at 16 nM.
The same measure, in the same setting: in the case of `O=C(c1nc2n(n1)[C@H](c1ccccc1)C[C@@H]2F)[C@@H]1CC12CC2` (racemic) [Example 163, [rac-(5S,7S)-7-fluoro-5-phenyl-6,7-dihydro-5H-pyrrolo[1,2-b][1,2,4]triazol-2-yl]-[rac-(2R)-spiro[2.2]pentan-2-yl]methanone] it was 4 nM.
For `[2H][C@]1(F)C[C@@H](c2ccccc2)n2nc(C(=O)C3CC3)nc21` (single isomer, unassigned) [Example 103], the Ki turned out to be 7.9 nM.
In the case of `[2H][C@H]1C[C@@H](c2ccccc2)n2nc(C(=O)C3CC3)nc21` (single isomer, unassigned) [Example 111], the Ki stood at 8.2 nM.
Same read-out and setting: in the case of `[2H]C1([2H])C[C@@H](c2ccccc2)n2nc(C(=O)C3CC3)nc21` (single isomer, unassigned) [Example 114] it was 18 nM.

Still in this assay, the particulars now being: tight-binding apparent inhibition constant (Ki app, Morrison equation), 50 nM enzyme, 50 μM ATP, 2 hours incubation.
With `O=C(c1nc2n(n1)[C@H](c1ccccc1)C[C@@H]2F)C1(F)CC1` (single isomer, unassigned) [Example 61], the Ki was 0.3 nM.
The same measure, in the same setting: the same measure for `CC(C)(O)C(=O)c1nc2n(n1)[C@@H](c1ccccc1)C[C@H]2F` (stereo in doubt) [Example 5, 2-hydroxy-2-methyl-1-[rac-(5R,7R)-7-fluoro-5-phenyl-6,7-dihydro-5H-pyrrolo[1,2-b][1,2,4]triazol-2-yl]propan-1-one]: 23 nM; for `O=C(c1nc2n(n1)[C@@H](c1ccccc1)C[C@H]2F)C1CC1` (stereo in doubt) [Example 35, cyclopropyl-[rac-(5R,7R)-7-fluoro-5-phenyl-6,7-dihydro-5H-pyrrolo[1,2-b][1,2,4]triazol-2-yl]methanone]: more than 9400 nM.
With `CC(C)(C)C(=O)c1nc2n(n1)[C@H](c1ccccc1)C[C@@H]2F` (stereo in doubt) [Example 37, 2,2-dimethyl-1-[rac-(5S,7S)-7-fluoro-5-phenyl-6,7-dihydro-5H-pyrrolo[1,2-b][1,2,4]triazol-2-yl]propan-1-one], the Ki is 2830 nM.
Turning to `CC(C)(C)C(=O)c1nc2n(n1)[C@@H](c1ccccc1)C[C@H]2F` (stereo in doubt) [Example 38, 2,2-dimethyl-1-[rac-(5R,7R)-7-fluoro-5-phenyl-6,7-dihydro-5H-pyrrolo[1,2-b][1,2,4]triazol-2-yl]propan-1-one], the Ki was 4.17 nM.
For `Cn1cc(C(=O)c2nc3n(n2)[C@@H](c2ccccc2)C[C@H]3F)cn1` (stereo in doubt) [Example 39, (1-methylpyrazol-4-yl)-[rac-(5R,7R)-7-fluoro-5-phenyl-6,7-dihydro-5H-pyrrolo[1,2-b][1,2,4]triazol-2-yl]methanone], the Ki turned out to be 225 nM.
`Cn1cc(C(=O)c2nc3n(n2)[C@H](c2ccccc2)C[C@@H]3F)cn1` (stereo in doubt) [Example 40, (1-methylpyrazol-4-yl)-[rac-(5S,7S)-7-fluoro-5-phenyl-6,7-dihydro-5H-pyrrolo[1,2-b][1,2,4]triazol-2-yl]methanone]: the Ki is more than 10000 nM.
On to `Cn1cc(C(=O)c2nc3n(n2)[C@@H](c2ccccc2)C[C@H]3F)cn1` (stereo in doubt) [Example 48, (1-methylpyrazol-4-yl)-[rac-(5R,7R)-7-fluoro-5-phenyl-6,7-dihydro-5H-pyrrolo[1,2-b][1,2,4]triazol-2-yl]methanone], for which the Ki was found to be 416 nM.

Another assay concerns the target T1, human RIP1 kinase domain (2-375).
Assay: not given
To be noted: RIP1 kinase inhibition, tight-binding apparent Ki; 50 nM enzyme, 50 μM ATP, 2 hours incubation.
In the case of `O=C(c1nc2n(n1)[C@H](c1ccccc1F)C[C@@H]2F)C1CC1` (single isomer, unassigned) [Example 62], the Ki worked out at 4 nM.
With `O=C(c1nc2n(n1)[C@@H](c1ccccc1)C[C@H]2F)C1CC(F)(F)C1` (single isomer, unassigned) [Example 64], the Ki amounted to 780 nM.
In the case of `O=C(c1nc2n(n1)[C@H](c1ccccc1)C[C@@H]2F)C1(CO)CC1` (single isomer, unassigned) [Example 72], the Ki was found to be 4.9 nM.
`O=C(c1nc2n(n1)[C@H](c1ccccc1)C[C@@H]2F)C1CC(F)(F)C1` (single isomer, unassigned) [Example 73]: the Ki is 3.4 nM.
On to `O=C(c1nc2n(n1)[C@H](c1ccccc1)C[C@@H]2F)C1CC2(CC2)C1` (single isomer, unassigned) [Example 76], for which the Ki was found to be 3.5 nM.
Take `O=C(c1nc2n(n1)[C@H](c1ccccc1Cl)CC2)C1CC1` (single isomer, unassigned) [Example 77]: the Ki was 14 nM.
For `O=C(c1nc2n(n1)[C@H](c1ccccc1)C[C@@H]2F)C1C2CC(F)(F)CC21` (single isomer, unassigned) [Example 80], the Ki is 33 nM.
For `O=C(c1nc2n(n1)[C@H](c1ccccc1)C[C@@H]2F)C1CC2C(C1)C2(F)F` (single isomer, unassigned) [Example 82], the Ki was 10 nM.
Turning to `N#CCC1(C(=O)c2nc3n(n2)[C@H](c2ccccc2)C[C@@H]3F)CC1` (single isomer, unassigned) [Example 83], the Ki came to 3.7 nM.
Regarding `CO[C@H]1C[C@@H](c2ccccc2)n2nc(C(=O)C3CC3)nc21` (single isomer, unassigned) [Example 84], the Ki turned out to be 150 nM.
With `O=C(c1nc2n(n1)[C@H](c1ccc(F)cc1)C[C@@H]2F)C1CC1` (single isomer, unassigned) [Example 85], the Ki was determined as 9 nM.
As to `O=C(c1nc2n(n1)[C@H](c1ccccc1)C[C@@H]2O)C1CC1` (single isomer, unassigned) [Example 87], the Ki worked out at 13 nM.
Take `O=C(c1nc2n(n1)[C@H](c1ccccc1)C[C@H]2O)C1CC1` (single isomer, unassigned) [Example 88]: the Ki was 180 nM.
Take `C[C@H]1C[C@@H]1C(=O)c1nc2n(n1)[C@H](c1ccccc1)C[C@@H]2F` (single isomer, unassigned) [Example 89]: the Ki came to 15 nM.
In the case of `C[C@@H]1C[C@H]1C(=O)c1nc2n(n1)[C@H](c1ccccc1)C[C@@H]2F` (single isomer, unassigned) [Example 91], the Ki turned out to be 3.4 nM.
On to `CC[C@@H]1C[C@H](F)c2nc(C(=O)C3CC3)nn21` (single isomer, unassigned) [Example 92], for which the Ki came out at 870 nM.
`CCC[C@@H]1C[C@H](F)c2nc(C(=O)C3CC3)nn21` (single isomer, unassigned) [Example 93]: the Ki turned out to be 41 nM.
Still for that read-out and setting: the same measure for `O=C(c1nc2n(n1)[C@H](c1c(F)cccc1F)C[C@@H]2F)C1CC1` (single isomer, unassigned) [Example 94]: 3.1 nM; for `N#CC1(C(=O)c2nc3n(n2)[C@H](c2ccccc2)C[C@@H]3F)CC1` (single isomer, unassigned) [Example 95]: 2.7 nM; for `O=C(c1nc2n(n1)[C@H](c1ccccc1)C[C@@H]2F)C1CC12CC2` (single isomer, unassigned) [Example 96]: 3.6 nM.
Turning to `O=C(c1nc2n(n1)[C@H](c1ccccc1)C[C@@H]2F)C1(c2ccccn2)CC1` (single isomer, unassigned) [Example 98], the Ki is 110 nM.
Turning to `O=C(c1nc2n(n1)[C@H](c1ccccc1)C[C@@H]2F)C1(C2CC2)CC1` (single isomer, unassigned) [Example 99], the Ki came to 2.9 nM.
For `O=C(c1nc2n(n1)[C@H](c1c(F)ccc(F)c1F)C[C@@H]2F)C1CC1` (single isomer, unassigned) [Example 102], the Ki turned out to be 3.6 nM.
For the compound `O=C(c1nc2n(n1)[C@H](c1cccc(F)c1F)C[C@@H]2F)C1CC1` (single isomer, unassigned) [Example 106], the Ki worked out at 3.1 nM.
`O=C(c1nc2n(n1)[C@H](c1cc(F)cc(F)c1F)C[C@@H]2F)C1CC1` (single isomer, unassigned) [Example 107]: the Ki was found to be 3.9 nM.
`O=C(c1cc2n(n1)[C@H](c1ccccc1)C[C@@H]2F)C1CC1` (single isomer, unassigned) [Example 108]: the Ki is 3.7 nM.

The assay is the same for the next values; noted with them: tight-binding apparent inhibition constant (Ki app, Morrison equation); 50 nM enzyme, 50 μM ATP, 2 hours incubation.
As for `CCC(=O)c1cc2n(n1)CC[C@H]2c1ccccc1` (single isomer, unassigned) [Example 23], the Ki amounted to 2180 nM.
For `CCC(=O)c1cc2n(n1)CC[C@@H]2c1ccccc1` (single isomer, unassigned) [Example 24], the Ki is more than 10000 nM.
Take `CC1(C(=O)c2nc3n(n2)[C@H](c2ccccc2)C[C@@H]3F)COC1` (single isomer, unassigned) [Example 54]: the Ki was determined as 28 nM.
For `CC1(C(=O)c2nc3n(n2)[C@@H](c2ccccc2)C[C@H]3F)COC1` (single isomer, unassigned) [Example 55], the Ki is more than 10000 nM.

The values above are taken from patent US11098058B2, “Bicyclic ketone compounds and methods of use thereof” (Genentech, Inc., priority 2017, dated 2021).
